Key:
Assay type in all cases: cell-based
[1] = biological target: T1, proteins of HEK293T cells transiently overexpressing caspase-6 (Homo sapiens, UniProt O00410); details: protein IPO5 (O00410)
T1 sequence (O00410 1-1097): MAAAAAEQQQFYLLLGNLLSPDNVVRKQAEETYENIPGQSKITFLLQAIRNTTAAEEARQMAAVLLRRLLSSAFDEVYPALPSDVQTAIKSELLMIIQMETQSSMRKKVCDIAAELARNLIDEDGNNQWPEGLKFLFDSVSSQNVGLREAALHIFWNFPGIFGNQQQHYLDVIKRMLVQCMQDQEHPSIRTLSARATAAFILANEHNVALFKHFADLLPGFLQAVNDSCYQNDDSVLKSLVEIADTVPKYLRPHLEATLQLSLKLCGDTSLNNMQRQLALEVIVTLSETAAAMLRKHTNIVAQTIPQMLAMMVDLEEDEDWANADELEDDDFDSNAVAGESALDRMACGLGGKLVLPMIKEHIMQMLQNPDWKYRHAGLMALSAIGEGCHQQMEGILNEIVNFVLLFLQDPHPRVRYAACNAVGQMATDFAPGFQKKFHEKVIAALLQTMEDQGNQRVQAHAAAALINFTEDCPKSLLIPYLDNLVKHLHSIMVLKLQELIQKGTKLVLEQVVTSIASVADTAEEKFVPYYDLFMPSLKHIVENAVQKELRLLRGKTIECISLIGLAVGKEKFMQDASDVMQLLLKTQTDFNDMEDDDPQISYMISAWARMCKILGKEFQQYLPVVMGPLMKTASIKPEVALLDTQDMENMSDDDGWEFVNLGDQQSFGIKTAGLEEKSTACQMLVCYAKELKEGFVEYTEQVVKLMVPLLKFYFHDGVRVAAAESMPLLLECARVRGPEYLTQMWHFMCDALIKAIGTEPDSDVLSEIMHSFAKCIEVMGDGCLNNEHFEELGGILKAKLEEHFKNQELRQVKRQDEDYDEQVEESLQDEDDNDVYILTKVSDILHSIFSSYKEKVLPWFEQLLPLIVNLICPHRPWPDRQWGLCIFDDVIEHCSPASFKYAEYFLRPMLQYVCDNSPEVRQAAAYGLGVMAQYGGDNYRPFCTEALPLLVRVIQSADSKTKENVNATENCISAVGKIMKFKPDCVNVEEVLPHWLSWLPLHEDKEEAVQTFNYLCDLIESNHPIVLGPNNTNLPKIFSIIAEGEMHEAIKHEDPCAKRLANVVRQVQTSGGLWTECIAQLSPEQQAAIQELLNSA

[2] = biological target: proteins of HEK293T cells transiently overexpressing caspase-6 (Homo sapiens, UniProt P00558); details: exp_ref Probe; protein PGK1 (P00558); analysis C6
[3] = biological target: proteins of HEK293T cells transiently overexpressing caspase-6 (Homo sapiens, UniProt P18124); details: Probe; protein RPL7 P18124
[4] = biological target: proteins of HEK293T cells transiently overexpressing caspase-6 (Homo sapiens, UniProt P20700); details: exp_ref Probe; protein LMNB1 (P20700); analysis C6
[5] = biological target: proteins of HEK293T cells transiently overexpressing caspase-6 (Homo sapiens, UniProt P23396); details: exp_ref Probe; protein RPS3 (P23396); analysis C6
[6] = biological target: proteins of HEK293T cells transiently overexpressing caspase-6 (Homo sapiens, UniProt P33993); details: Probe; protein MCM7 P33993
[7] = biological target: proteins of HEK293T cells transiently overexpressing caspase-6 (Homo sapiens, UniProt P35527); details: Probe; protein KRT9 P35527
[8] = biological target: proteins of HEK293T cells transiently overexpressing caspase-6 (Homo sapiens, UniProt P46782); details: protein RPS5 (P46782)
[9] = biological target: proteins of HEK293T cells transiently overexpressing caspase-6 (Homo sapiens, UniProt P53985); details: exp_ref Probe; protein SLC16A1 (P53985); analysis C6
[10] = biological target: proteins of HEK293T cells transiently overexpressing caspase-6 (Homo sapiens, UniProt P62701); details: exp_ref Probe; protein RPS4X (P62701); analysis C6
[11] = biological target: proteins of HEK293T cells transiently overexpressing caspase-6 (Homo sapiens, UniProt P62805)
[12] = biological target: proteins of HEK293T cells transiently overexpressing caspase-6 (Homo sapiens, UniProt P84103); details: Probe; protein SRSF3 P84103
[13] = biological target: T2, proteins of HEK293T cells transiently overexpressing caspase-6 (Homo sapiens, UniProt Q8NC51)
T2 sequence (Q8NC51 1-408): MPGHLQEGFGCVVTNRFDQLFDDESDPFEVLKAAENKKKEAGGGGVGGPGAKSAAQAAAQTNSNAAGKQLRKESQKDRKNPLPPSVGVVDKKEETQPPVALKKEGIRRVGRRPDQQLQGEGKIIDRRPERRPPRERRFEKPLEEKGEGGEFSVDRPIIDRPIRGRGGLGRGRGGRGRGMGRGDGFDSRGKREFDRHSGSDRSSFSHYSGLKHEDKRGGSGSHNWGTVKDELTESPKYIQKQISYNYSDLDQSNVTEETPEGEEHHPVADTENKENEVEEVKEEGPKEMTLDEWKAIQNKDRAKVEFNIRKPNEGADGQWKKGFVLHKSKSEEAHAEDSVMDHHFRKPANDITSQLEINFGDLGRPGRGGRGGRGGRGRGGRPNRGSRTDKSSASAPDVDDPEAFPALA

[14] = biological target: proteins of HEK293T cells transiently overexpressing caspase-6 (Homo sapiens, UniProt Q92688); details: protein ANP32B (Q92688)
Chain of proteins of HEK293T cells transiently overexpressing caspase-6 (Homo sapiens, UniProt Q92688) (Q92688 whole entry): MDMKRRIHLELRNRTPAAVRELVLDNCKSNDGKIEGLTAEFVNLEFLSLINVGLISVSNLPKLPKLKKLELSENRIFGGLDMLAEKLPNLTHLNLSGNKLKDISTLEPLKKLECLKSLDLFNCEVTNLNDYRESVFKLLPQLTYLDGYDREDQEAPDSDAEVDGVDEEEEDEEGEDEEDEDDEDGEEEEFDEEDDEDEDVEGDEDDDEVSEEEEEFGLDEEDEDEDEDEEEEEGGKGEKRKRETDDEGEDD

Chain of proteins of HEK293T cells transiently overexpressing caspase-6 (Homo sapiens, UniProt P53985) (P53985 whole entry): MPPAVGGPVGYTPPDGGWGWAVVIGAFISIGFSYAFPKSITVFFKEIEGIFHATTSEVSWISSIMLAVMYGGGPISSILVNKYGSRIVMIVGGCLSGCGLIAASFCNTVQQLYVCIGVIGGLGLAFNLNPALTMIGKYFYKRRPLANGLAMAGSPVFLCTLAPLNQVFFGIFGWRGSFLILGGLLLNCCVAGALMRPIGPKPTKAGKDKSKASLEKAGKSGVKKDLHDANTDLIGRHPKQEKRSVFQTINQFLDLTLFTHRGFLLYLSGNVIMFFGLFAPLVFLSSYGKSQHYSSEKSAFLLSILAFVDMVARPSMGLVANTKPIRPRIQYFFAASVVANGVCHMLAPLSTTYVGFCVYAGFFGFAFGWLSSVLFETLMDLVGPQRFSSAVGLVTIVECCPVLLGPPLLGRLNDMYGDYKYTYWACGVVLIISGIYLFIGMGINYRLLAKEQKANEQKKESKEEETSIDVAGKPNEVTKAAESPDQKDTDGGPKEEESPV
Chain of proteins of HEK293T cells transiently overexpressing caspase-6 (Homo sapiens, UniProt P33993) (P33993 whole entry): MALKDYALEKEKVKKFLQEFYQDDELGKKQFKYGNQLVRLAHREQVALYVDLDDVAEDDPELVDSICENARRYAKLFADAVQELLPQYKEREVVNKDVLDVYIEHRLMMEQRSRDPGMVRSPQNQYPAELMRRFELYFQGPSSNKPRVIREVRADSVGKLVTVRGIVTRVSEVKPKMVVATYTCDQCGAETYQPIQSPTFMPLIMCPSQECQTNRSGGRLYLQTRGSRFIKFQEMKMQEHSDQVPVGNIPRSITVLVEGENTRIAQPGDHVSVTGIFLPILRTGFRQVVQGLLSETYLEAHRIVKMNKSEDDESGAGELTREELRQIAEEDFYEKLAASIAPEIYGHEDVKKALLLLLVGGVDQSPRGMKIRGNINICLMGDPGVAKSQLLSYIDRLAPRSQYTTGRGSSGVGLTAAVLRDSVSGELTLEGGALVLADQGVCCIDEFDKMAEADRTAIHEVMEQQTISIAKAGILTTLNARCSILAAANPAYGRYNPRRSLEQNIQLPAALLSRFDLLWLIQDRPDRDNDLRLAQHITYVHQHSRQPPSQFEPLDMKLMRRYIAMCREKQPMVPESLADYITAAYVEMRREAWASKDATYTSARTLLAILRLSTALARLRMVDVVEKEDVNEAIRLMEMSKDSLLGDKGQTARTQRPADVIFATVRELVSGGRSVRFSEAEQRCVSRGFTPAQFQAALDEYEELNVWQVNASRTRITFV
Chain of proteins of HEK293T cells transiently overexpressing caspase-6 (Homo sapiens, UniProt P20700) (P20700 whole entry): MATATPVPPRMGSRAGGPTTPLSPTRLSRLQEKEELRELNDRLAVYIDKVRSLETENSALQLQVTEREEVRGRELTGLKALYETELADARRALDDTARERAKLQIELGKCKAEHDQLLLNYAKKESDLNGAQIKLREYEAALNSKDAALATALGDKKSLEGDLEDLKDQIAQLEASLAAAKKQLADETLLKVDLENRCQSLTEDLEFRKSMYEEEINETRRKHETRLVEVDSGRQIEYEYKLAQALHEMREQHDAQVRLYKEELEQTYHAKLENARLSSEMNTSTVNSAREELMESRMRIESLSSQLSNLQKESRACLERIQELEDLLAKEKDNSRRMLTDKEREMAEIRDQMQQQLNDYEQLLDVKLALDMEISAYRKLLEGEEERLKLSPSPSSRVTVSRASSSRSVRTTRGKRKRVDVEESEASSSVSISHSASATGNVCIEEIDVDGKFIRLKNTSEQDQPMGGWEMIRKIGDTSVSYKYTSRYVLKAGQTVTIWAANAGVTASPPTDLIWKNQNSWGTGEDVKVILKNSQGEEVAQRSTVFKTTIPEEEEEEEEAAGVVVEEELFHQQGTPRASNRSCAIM
Chain of proteins of HEK293T cells transiently overexpressing caspase-6 (Homo sapiens, UniProt P84103) (P84103 whole entry): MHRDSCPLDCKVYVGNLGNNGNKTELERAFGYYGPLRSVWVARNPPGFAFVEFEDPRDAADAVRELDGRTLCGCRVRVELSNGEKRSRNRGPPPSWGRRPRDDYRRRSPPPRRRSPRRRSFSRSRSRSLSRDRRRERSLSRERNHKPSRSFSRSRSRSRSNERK
Chain of proteins of HEK293T cells transiently overexpressing caspase-6 (Homo sapiens, UniProt P35527) (P35527 whole entry): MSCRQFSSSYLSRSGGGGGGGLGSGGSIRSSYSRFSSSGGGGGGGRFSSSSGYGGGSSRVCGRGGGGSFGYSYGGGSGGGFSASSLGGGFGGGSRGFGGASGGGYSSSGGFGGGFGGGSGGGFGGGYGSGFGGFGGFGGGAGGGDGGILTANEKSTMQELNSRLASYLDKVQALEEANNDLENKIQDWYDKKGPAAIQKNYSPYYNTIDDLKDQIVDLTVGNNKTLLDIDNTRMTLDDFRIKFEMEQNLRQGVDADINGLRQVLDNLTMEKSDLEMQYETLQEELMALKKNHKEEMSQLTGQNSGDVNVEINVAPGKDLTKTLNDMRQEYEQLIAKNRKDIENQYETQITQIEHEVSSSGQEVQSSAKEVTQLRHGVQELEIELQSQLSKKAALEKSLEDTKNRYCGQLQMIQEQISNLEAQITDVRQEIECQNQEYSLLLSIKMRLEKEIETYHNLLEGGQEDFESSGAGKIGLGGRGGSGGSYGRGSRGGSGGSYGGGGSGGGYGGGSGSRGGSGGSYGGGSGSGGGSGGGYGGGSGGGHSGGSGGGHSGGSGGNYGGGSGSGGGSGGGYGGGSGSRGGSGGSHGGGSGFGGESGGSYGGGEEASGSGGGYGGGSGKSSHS
Chain of proteins of HEK293T cells transiently overexpressing caspase-6 (Homo sapiens, UniProt P00558) (P00558 whole entry): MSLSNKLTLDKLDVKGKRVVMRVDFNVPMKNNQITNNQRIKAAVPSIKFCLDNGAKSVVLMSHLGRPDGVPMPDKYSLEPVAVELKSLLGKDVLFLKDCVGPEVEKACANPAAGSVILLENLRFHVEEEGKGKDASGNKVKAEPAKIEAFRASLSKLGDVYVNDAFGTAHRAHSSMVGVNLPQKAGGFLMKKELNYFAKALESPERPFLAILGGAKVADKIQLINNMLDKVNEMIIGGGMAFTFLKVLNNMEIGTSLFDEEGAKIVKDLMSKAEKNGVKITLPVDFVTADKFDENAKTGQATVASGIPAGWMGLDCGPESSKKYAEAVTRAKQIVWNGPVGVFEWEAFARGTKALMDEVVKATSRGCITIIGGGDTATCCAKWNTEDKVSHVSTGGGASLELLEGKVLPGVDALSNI

How did the enrich.exp.med ([1]; exp_ref Probe, analysis C6) turn out when `C#CCOc1ccc([C@@H]2C[C@@H](C(=O)Nc3ccc(OC(F)(F)F)cc3)CN(S(=O)(=O)C=C)C2)cc1` (relative stereo) [13-t] was run?
The enrich.exp.med was 0.788.

What about the enrich.exp.med.lin [1] of the same compound?
Its enrich.exp.med.lin is 1.727.

And the enrich.exp.med.log2 [1]?
The enrich.exp.med.log2 was 0.788.

What about the enrich.exp.med [2] of the same compound?
Its enrich.exp.med is 0.1871.

What about the enrich.exp.med [3] of the same compound?
The enrich.exp.med was -0.45.

And the enrich.exp.med [4]?
The enrich.exp.med was -0.2652.

And the enrich.exp.med [5]?
Its enrich.exp.med is 0.6101.

And the enrich.exp.med [6]?
The enrich.exp.med was -1.046.

And the enrich.exp.med [7]?
The enrich.exp.med was -6.8322.

And the enrich.exp.med.lin [8]?
Its enrich.exp.med.lin is 3.054.

What about the enrich.exp.med.log2 [8] of the same compound?
The enrich.exp.med.log2 was 1.611.

And the enrich.exp.med ([8]; exp_ref Probe, analysis C6)?
Its enrich.exp.med is 1.611.

What about the enrich.exp.med [9] of the same compound?
The enrich.exp.med was -0.3557.

And the enrich.exp.med [10]?
Its enrich.exp.med is 0.8885.

And the enrich.exp.med ([11]; Probe, protein HIST1H4A P62805)?
Its enrich.exp.med is -2.533.

What about the enrich.exp.med.lin ([11]; protein HIST1H4A (P62805)) of the same compound?
Its enrich.exp.med.lin is 0.1728.

What about the enrich.exp.med.log2 ([11]; protein HIST1H4A (P62805)) of the same compound?
Its enrich.exp.med.log2 is -2.533.

And the enrich.exp.med [12]?
Its enrich.exp.med is -0.7077.

And the enrich.exp.med ([13]; Probe, protein SERBP1 Q8NC51)?
Its enrich.exp.med is -1.6881.

And the enrich.exp.med.lin ([13]; protein SERBP1 (Q8NC51))?
The enrich.exp.med.lin was 0.3103.

What about the enrich.exp.med.log2 ([13]; protein SERBP1 (Q8NC51)) of the same compound?
Its enrich.exp.med.log2 is -1.6881.

What about the enrich.exp.med.lin [14] of the same compound?
Its enrich.exp.med.lin is 4.217.

And the enrich.exp.med.log2 [14]?
Its enrich.exp.med.log2 is 2.0761.

What about the enrich.exp.med ([14]; exp_ref Probe, analysis C6) of the same compound?
Its enrich.exp.med is 2.0761.

From PMC10176470, “Engaging a Non-catalytic Cysteine Residue Drives Potent and Selective Inhibition of Caspase-6” (Journal of the American Chemical Society, 2023)
